Tests used:
Type in all cases: in vivo
[1] = system: barnyardgrass (Echinochloa crus-galli); assay: Test A preemergence, directed soil spray, visual injury rating; details: Echinochloa crus-galli, pre-emergence, 240 h, 0 is no effect, 100 is complete control, read-out: Plant response rating (0 to 100 scale), Barnyardgrass; for pest or weed control at 31 g/ha: 31 g ai/ha; for pest or weed control at 125 g/ha: 125 g ai/ha
Outline: (§1)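 Seeds sown in a loam soil–sand blend received a directed preemergence soil spray of test chemical in a non-phytotoxic solvent mixture with surfactant. Postemergence plants were sprayed at 2 to 10 cm, one- to two-leaf stage. After approximately 10 d in greenhouse, injury was visually rated 0 (no effect) to 100 (complete control) against untreated controls.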

[2] = system: foxtail, giant (giant foxtail, Setaria faberii); assay: as above; details: Setaria faberi, pre-emergence, 240 h, 0 is no effect, 100 is complete control, read-out: Plant response rating (0 to 100 scale), Foxtail, Giant; for pest or weed control at 31 g/ha: 31 g ai/ha; for pest or weed control at 125 g/ha: 125 g ai/ha
Outline: as §1

kochia (Kochia scoparia) [3] = assay: as above; details: Bassia scoparia, pre-emergence, 240 h, 0 is no effect, 100 is complete control, read-out: Plant response rating (0 to 100 scale), Kochia; for pest or weed control at 31 g/ha: 31 g ai/ha; for pest or weed control at 125 g/ha: 125 g ai/ha
Outline: as §1

[4] = system: pigweed (Amaranthus retroflexus); assay: as above; details: Amaranthus retroflexus, pre-emergence, 240 h, 0 is no effect, 100 is complete control, read-out: Plant response rating (0 to 100 scale), Pigweed; for pest or weed control at 31 g/ha: 31 g ai/ha; for pest or weed control at 125 g/ha: 125 g ai/ha
Outline: as §1

[5] = system: ragweed (common ragweed, Ambrosia elatior); assay: as above; details: Ambrosia artemisiifolia, pre-emergence, 240 h, 0 is no effect, 100 is complete control, read-out: Plant response rating (0 to 100 scale), Ragweed; for pest or weed control at 31 g/ha: 31 g ai/ha; for pest or weed control at 125 g/ha: 125 g ai/ha
Outline: as §1

[6] = system: ryegrass, It. (Italian ryegrass, Lolium multiflorum); assay: as above; details: Lolium multiflorum, pre-emergence, 240 h, 0 is no effect, 100 is complete control, read-out: Plant response rating (0 to 100 scale), Ryegrass, It.; for pest or weed control at 31 g/ha: 31 g ai/ha; for pest or weed control at 125 g/ha: 125 g ai/ha
Outline: as §1

[7] = system: barnyardgrass (Echinochloa crus-galli); assay: Test B flooded paddy test, visual rating; details: Echinochloa crus-galli, 360 h; Flood, 250 g ai/ha, applied to paddy water, rated after 13 to 15 d; read-out: Barnyardgrass plant response rating (0 to 100 scale, 0 is no effect, 100 is complete control)
Outline: (§2)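 Plants at the 2-leaf stage were flooded to 3 cm above soil, and test compounds were applied directly into the paddy water, which was held at that depth throughout. After 13 to 15 d in a greenhouse, injury was rated visually against untreated controls on a 0–100 scale (0 no effect, 100 complete control).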

[8] = system: ducksalad (Heteranthera limosa); assay: Test B flooded paddy test, visual rating; details: Heteranthera limosa, 360 h; Flood, 250 g ai/ha, applied to paddy water, rated after 13 to 15 d; read-out: Ducksalad plant response rating (0 to 100 scale, 0 is no effect, 100 is complete control)
Outline: as §2

[9] = system: sedge, umbrella (small-flower umbrella sedge, Cyperus difformis); assay: Test B flooded paddy test, visual rating; details: Cyperus difformis, 360 h; Flood, 250 g ai/ha, applied to paddy water, rated after 13 to 15 d; read-out: Sedge, Umbrella plant response rating (0 to 100 scale, 0 is no effect, 100 is complete control)
Outline: as §2

[10] = system: barnyardgrass (Echinochloa crus-galli); assay: Test A postemergence application, visual injury rating; details: Echinochloa crus-galli, post-emergence, 240 h, 0 to 100 scale, 0 no effect, 100 complete control, read-out: Barnyardgrass plant response rating; for pest or weed control at 31 g/ha: 31 g ai/ha; for pest or weed control at 125 g/ha: 125 g ai/ha
Outline: as §1

[11] = system: blackgrass (Alopecurus myosuroides); assay: as above; details: Alopecurus myosuroides, post-emergence, 240 h, 0 to 100 scale, 0 no effect, 100 complete control, read-out: Blackgrass plant response rating; for pest or weed control at 31 g/ha: 31 g ai/ha; for pest or weed control at 125 g/ha: 125 g ai/ha
Outline: as §1

corn (Zea mays) = assay: as above; details: for Plant response rating (0 to 100 scale), Corn: 31 g ai/ha, 0 is no effect, 100 is complete control; for plant injury at 125 g/ha: Zea mays, post-emergence, 240 h, 125 g ai/ha, 0 to 100 scale, 0 no effect, 100 complete control, read-out: Corn plant response rating
Outline: as §1

[12] = system: foxtail, giant (giant foxtail, Setaria faberii); assay: as above; details: for Plant response rating (0 to 100 scale), Foxtail, Giant: 31 g ai/ha, 0 is no effect, 100 is complete control; for pest or weed control at 125 g/ha: Setaria faberi, post-emergence, 240 h, 125 g ai/ha, 0 to 100 scale, 0 no effect, 100 complete control, read-out: Foxtail, Giant plant response rating
Outline: as §1

[13] = system: galium (catchweed bedstraw, Galium aparine); assay: as above; details: for Plant response rating (0 to 100 scale), Galium: 31 g ai/ha, 0 is no effect, 100 is complete control; for pest or weed control at 125 g/ha: Galium, post-emergence, 240 h, 125 g ai/ha, 0 to 100 scale, 0 no effect, 100 complete control, read-out: Galium plant response rating
Outline: as §1

kochia (Kochia scoparia) [14] = assay: as above; details: for Plant response rating (0 to 100 scale), Kochia: 31 g ai/ha, 0 is no effect, 100 is complete control; for pest or weed control at 125 g/ha: Bassia scoparia, post-emergence, 240 h, 125 g ai/ha, 0 to 100 scale, 0 no effect, 100 complete control, read-out: Kochia plant response rating
Outline: as §1

[15] = system: pigweed (Amaranthus retroflexus); assay: as above; details: for Plant response rating (0 to 100 scale), Pigweed: 31 g ai/ha, 0 is no effect, 100 is complete control; for pest or weed control at 125 g/ha: Amaranthus retroflexus, post-emergence, 240 h, 125 g ai/ha, 0 to 100 scale, 0 no effect, 100 complete control, read-out: Pigweed plant response rating
Outline: as §1

[16] = system: ragweed (common ragweed, Ambrosia elatior); assay: as above; details: for Plant response rating (0 to 100 scale), Ragweed: 31 g ai/ha, 0 is no effect, 100 is complete control; for pest or weed control at 125 g/ha: Ambrosia artemisiifolia, post-emergence, 240 h, 125 g ai/ha, 0 to 100 scale, 0 no effect, 100 complete control, read-out: Ragweed plant response rating
Outline: as §1

[17] = system: ryegrass, It. (Italian ryegrass, Lolium multiflorum); assay: as above; details: for Plant response rating (0 to 100 scale), Ryegrass, It.: 31 g ai/ha, 0 is no effect, 100 is complete control; for pest or weed control at 125 g/ha: Lolium multiflorum, post-emergence, 240 h, 125 g ai/ha, 0 to 100 scale, 0 no effect, 100 complete control, read-out: Ryegrass, It. plant response rating
Outline: as §1

[18] = system: wheat (Triticum aestivum); assay: as above; details: for Plant response rating (0 to 100 scale), Wheat: 31 g ai/ha, 0 is no effect, 100 is complete control; for plant injury at 125 g/ha: Triticum aestivum, post-emergence, 240 h, 125 g ai/ha, 0 to 100 scale, 0 no effect, 100 complete control, read-out: Wheat plant response rating
Outline: as §1

Row | Compound | pest or weed control at 31 g/ha [1] [%] | pest or weed control at 125 g/ha [1] [%] | pest or weed control at 31 g/ha [2] [%] | pest or weed control at 125 g/ha [2] [%] | pest or weed control at 31 g/ha (kochia (Kochia scoparia) [3]) [%] | pest or weed control at 125 g/ha (kochia (Kochia scoparia) [3]) [%] | pest or weed control at 31 g/ha [4] [%] | pest or weed control at 125 g/ha [4] [%] | pest or weed control at 31 g/ha [5] [%] | pest or weed control at 125 g/ha [5] [%] | pest or weed control at 31 g/ha [6] [%] | pest or weed control at 125 g/ha [6] [%] | pest or weed control at 250 g/ha [7] [%] | pest or weed control at 250 g/ha [8] [%] | pest or weed control at 250 g/ha [9] [%] | pest or weed control at 31 g/ha [10] [%] | pest or weed control at 125 g/ha [10] [%] | pest or weed control at 31 g/ha [11] [%] | pest or weed control at 125 g/ha [11] [%] | Plant response rating (0 to 100 scale), Corn (corn (Zea mays)) | other results
1 | Cn1nc(Cl)c(O)c(-c2nccc3ccccc23)c1=O [Compound 67, 6-chloro-5-hydroxy-4-(1-isoquinolinyl)-2-methyl-3(2H)-pyridazinone] | 0 | 0 | 0 | 0 | 0 | 0 | 10 | 20 | 0 | 0 | 10 | 50 | 0 | 0 | 75 | 0 | 0 | 0 | 0 | 0 | plant injury at 125 g/ha (corn (Zea mays)): 0%; Plant response rating (0 to 100 scale), Foxtail, Giant [12]: 0; pest or weed control at 125 g/ha [12]: 0%; Plant response rating (0 to 100 scale), Galium [13]: 20; pest or weed control at 125 g/ha [13]: 40%; Plant response rating (0 to 100 scale), Kochia (kochia (Kochia scoparia) [14]): 0; pest or weed control at 125 g/ha (kochia (Kochia scoparia) [14]): 40%; Plant response rating (0 to 100 scale), Pigweed [15]: 40; pest or weed control at 125 g/ha [15]: 50%; Plant response rating (0 to 100 scale), Ragweed [16]: 0; pest or weed control at 125 g/ha [16]: 10%; Plant response rating (0 to 100 scale), Ryegrass, It. [17]: 20; pest or weed control at 125 g/ha [17]: 60%; Plant response rating (0 to 100 scale), Wheat [18]: 0; plant injury at 125 g/ha [18]: 0%
2 | Cc1nn(C)c(=O)c(-c2ccc(F)c3ccoc23)c1O [Compound 68, 4-(4-fluoro-7-benzofuranyl)-5-hydroxy-2,6-dimethyl-3(2H)-pyridazinone] | 0 | 20 | 0 | 20 | 30 | 60 | 0 | 80 | 30 | 50 | 20 | 80 | 0 | 0 | 0 | 0 | 10 | 0 | 60 | 0 | plant injury at 125 g/ha (corn (Zea mays)): 0%; Plant response rating (0 to 100 scale), Foxtail, Giant [12]: 0; pest or weed control at 125 g/ha [12]: 20%; Plant response rating (0 to 100 scale), Galium [13]: 60; pest or weed control at 125 g/ha [13]: 90%; Plant response rating (0 to 100 scale), Kochia (kochia (Kochia scoparia) [14]): 20; pest or weed control at 125 g/ha (kochia (Kochia scoparia) [14]): 90%; Plant response rating (0 to 100 scale), Pigweed [15]: 0; pest or weed control at 125 g/ha [15]: 20%; Plant response rating (0 to 100 scale), Ragweed [16]: 0; pest or weed control at 125 g/ha [16]: 10%; Plant response rating (0 to 100 scale), Ryegrass, It. [17]: 80; pest or weed control at 125 g/ha [17]: 90%; Plant response rating (0 to 100 scale), Wheat [18]: 0; plant injury at 125 g/ha [18]: 0%
